From patent publication US12528774B2, “Thiosemicarbazone compounds and uses thereof” (The Regents of the University of California, priority 2019, dated 2026) come the findings set out here.

Molecules are shown by their SMILES.

In one experiment the test system is 143 BTK WT cells. Nature of the experiment: Cell cycle analysis in 143 BTK WT cells. To be noted: HCT13 + Cu(II) 20 μM. It counts as cell-based. The procedure: FIG. 3A: Mito Stress Test of MIAPACA2 PDAC cells treated with HCT13 (25 nM)+Cu(II) (20 μM) for 24h. FIG. 3B: electron flow assay in isolated mitochondria treated with HCT-13 (100 nM)+Cu(II) (20 μM) for 1h. FIG. 3C: viability of 143 BTK parental (wild type, WT) and ρ0 cells after 48h of the indicated HCT13 concentration+Cu(II) (20 μM) treatment, assessed with Trypan Blue Staining. FIG. 3D: 48h cell cycle histogram and plots of S-phase arrest plots in 143 BTK WT and 143 BTK ρ0 cells at 24, 48 and 72h following treatment with indicated concentrations of HCT13+Cu(II)(20 μM). (mean±SD, n=2, one-way ANOVA corrected for multiple comparisons by Bonferroni adjustment, * P<0.05; ** P<0.01; *** P<0.001).
Another HCT compound, Dp44mT, was reported to increase AMPK expression and induce ROS, although its cytotoxicity was not attributed to the functionality of the mitochondria. (Ref 50). To determine whether the cytotoxicity of HCT13 was mitochondria-dependent, its effects upon 143 BTK ρ0, an mtDNA-deficient fibroblast cell line, was examined. Both 143 BTK ρ0 and parental (wild type, WT) cells were treated with HCT13+20 μM Cu(II) for 48 hours, after which cell viability was determined through trypan blue staining (FIG. 3C).
Cell cycle: Cell cycle was assessed using Propidium iodide staining at indicated timepoints. Cells were pulsed with EdU 1 h before collection at different time points. […]

Experiment [1] has as its system p185BCR-ABL Arf−/− pre-B-ALL cells. As to the kind of experiment: In vivo efficacy, systemic p185 pre-B ALL model. On the set-up: species or system mouse. To be noted: 1 mg/kg q.d. 8 days; fourteen days after treatment initiation. An excerpt:
FIG. 9A: dose and schedule for the efficacy study in p185 pre-B-ALL mice. FIGS. 9B-9D: bioluminescence images and quantification of whole body radiance of mice treated with HCT-16 (n=5) or vehicle control (n=10). FIG. 9E: dose and schedule for the efficacy study in MV4-11 AML bearing mice. FIGS. 9F-9H: bioluminescence images and quantification of whole body radiance of mice treated with HCT-16 (n=5) or vehicle control (n=5). (mean±SD, n=2, student's paired t-test, * P<0.05; ** P<0.01; *** P<0.001). q.d.=once/day. For purposes of the disclosure, Cu(HCT-13) is the same as compound HCT-16 (i.e., copper complexed with HCT-13).
The in vivo efficacy and tolerability of HCT-13 was investigated. […] Both p185 and MV4-11 cell lines were engineered to express luciferase to monitor the systemic leukemic burden by bioluminescence imaging (BLI). (Boulos et al, Blood 2011, 117(13):3585-3595; Rahmani et al, Cancer Res. 2018, 78(11):3075-3086). To bypass the need for systemic copper supplementation, a one-to-one complex of copper and HCT-13 (i.e., HCT-16) was prepared for in vivo administration according to reported procedures for similar compounds and characterized by UV-HPLC and HR-MS. […]
In vivo leukemia models and treatment regimens. […] The leukemic burden was monitored using bioluminescence imaging. […]

Regarding `CN(C)C(=S)N/N=C/c1nccc2cc(F)ccc12` (mixture of isomers) [HCT13, (E)-2-((6-Fluoroisoquinolin-1-yl)methylene)-N,N-dimethylhydrazine-1-carbothioamide and (Z)-2-((6-Fluoroisoquinolin-1-yl)methylene)-N,N-dimethylhydrazine-1-carbothioamide], the S-phase arrest result in the experiment with 143 BTK WT cells is listed as “marked S-phase arrest”. Also, the “systemic disease burden versus control group (bioluminescence)” value in experiment [1] is “significantly lower systemic disease burden”.
